Measurements published in patent US10272081B2, “SHIP1 modulators and methods related thereto” (Aquinox Pharmaceuticals (Canada) Inc., priority 2013, dated 2019).

Biological target: T1, His-hSHIP1 enzyme (Homo sapiens, UniProt Q92835)
T1 construct: His
T1 sequence (Q92835 1-1189): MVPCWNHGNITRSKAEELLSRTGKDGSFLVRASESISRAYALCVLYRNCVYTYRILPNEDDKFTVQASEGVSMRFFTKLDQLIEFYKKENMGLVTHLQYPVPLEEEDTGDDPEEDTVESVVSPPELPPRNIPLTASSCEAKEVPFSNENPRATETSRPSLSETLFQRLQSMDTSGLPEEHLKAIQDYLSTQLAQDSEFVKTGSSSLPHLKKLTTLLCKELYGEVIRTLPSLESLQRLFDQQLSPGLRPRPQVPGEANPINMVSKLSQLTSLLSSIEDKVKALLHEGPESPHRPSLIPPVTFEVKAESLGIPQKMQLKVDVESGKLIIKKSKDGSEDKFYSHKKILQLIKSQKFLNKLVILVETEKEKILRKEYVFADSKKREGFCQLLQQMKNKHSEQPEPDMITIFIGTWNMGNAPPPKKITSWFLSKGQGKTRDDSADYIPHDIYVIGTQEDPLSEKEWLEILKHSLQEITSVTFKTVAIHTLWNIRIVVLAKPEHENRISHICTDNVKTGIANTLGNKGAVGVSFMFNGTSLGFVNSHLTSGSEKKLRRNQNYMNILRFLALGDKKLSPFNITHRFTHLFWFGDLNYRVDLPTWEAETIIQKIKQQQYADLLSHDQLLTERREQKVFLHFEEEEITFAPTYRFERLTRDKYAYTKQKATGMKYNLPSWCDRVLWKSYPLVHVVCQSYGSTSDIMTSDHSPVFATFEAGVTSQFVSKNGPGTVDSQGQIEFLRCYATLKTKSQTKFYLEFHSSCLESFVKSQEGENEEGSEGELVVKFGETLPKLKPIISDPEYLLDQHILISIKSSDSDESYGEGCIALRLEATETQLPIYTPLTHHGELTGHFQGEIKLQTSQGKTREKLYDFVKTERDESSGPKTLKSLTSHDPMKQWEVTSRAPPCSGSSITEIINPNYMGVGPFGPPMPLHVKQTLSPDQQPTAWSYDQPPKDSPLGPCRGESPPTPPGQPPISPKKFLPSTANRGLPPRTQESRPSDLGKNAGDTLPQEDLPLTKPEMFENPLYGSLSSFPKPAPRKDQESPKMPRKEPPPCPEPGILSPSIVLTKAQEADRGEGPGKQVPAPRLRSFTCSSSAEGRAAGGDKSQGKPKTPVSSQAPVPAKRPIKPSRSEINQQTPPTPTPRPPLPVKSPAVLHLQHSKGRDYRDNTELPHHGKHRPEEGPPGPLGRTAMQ
Experiment: His-hSHIP1 activity, approach 1 (phosphate release from IP4, Biomol Green)
Format: biochemical
Settings: activation of His-hSHIP1; IP4 50 μM; test compound 0-300 μM; no asterisk in Table 2
Method: Test compounds are dissolved in 95% ethanol to form stock solutions. Before screening, the stock solutions are diluted with Phosphatase Assay Buffer (20 mM Tris-HCL, 10 mM MgCl2 pH 7.5, 0.02% Tween 20) to form working assay solutions that contain 10% ethanol. The assay is carried out on 96-well microtiter plates using a modified procedure of that reported by Ong et al., Blood 110, 1942-1949, 2007 and Yang et al., Org Lett 7, 1073-1076, 2005, both of which references are incorporated herein by reference in their entirety.
Data were generated by one of two variant methods. Test compounds are screened by one of two approaches described as follows. In the first approach, each reaction contains 5 μL of His-hSHIP1 enzyme (5-20 ng), 10 μL of the substrate, 1,3,4,5-inositol tetrakisphosphate (IP4; 50 μM final), 5 μL of Phosphatase Assay Buffer, and 5 µL of test compound at various concentrations in 10% ethanol (0-300 μM final). Control blanks are also prepared by replacing His-hSHIP1 enzyme, IP4, or test compounds with Phosphatase Assay Buffer. After adding the reaction components in a 96-well microtiter plate on ice, the reaction is mixed by briefly shaking the plate vigorously. The reaction is then incubated at 37° C. for 15 min with gentle shaking followed by addition of 100 μL of Biomol Green Reagent (BIOMOL, Pa., USA) to terminate the reaction. The free phosphate released from IP4 by His-hSHIP1 binds to the Biomol Green Reagent, which turns the dye to green color. After incubating the mixture for 20 min at room temperature for color development, the absorbance is read with SpectraMax Plus 96-well plate reader (Molecular Devices, Sunnyvale, Calif., USA) at a wavelength of 650 nm.

Structure (SMILES)	Scoring, Approach 1 (% increase relative to background)
COc1cc(C)cc(C(=O)[C@H]2[C@@H](C)[C@H](O)C[C@H]3C(C)(C)CCC[C@]23C)c1 [Compound No. 6, (2R,3R,4S,4aS,8aS)-4-[(3-methoxy-5-methylphenyl)carbonyl]-3,4a,8,8-tetramethyl-decahydronaphthalen-2-ol]	+ (0 < x < 50)
COc1cc(C)cc(C(=O)[C@H]2[C@H](C)C(NCCCN)C[C@H]3C(C)(C)CCC[C@]23C)c1.Cl.Cl (stereo partly drawn) [Compound No. 11, (3S,4S,4aS,8aS)-N-(3-aminopropyl)-4-[(3-methoxy-5-methylphenyl)carbonyl]-3,4a,8,8-tetramethyl-decahydronaphthalen-2-amine dihydrochloride]	+++ (x ≥65)
COc1cc(C)cc(OC[C@@H]2[C@@]3(C)CCCC(C)(C)[C@@H]3CC[C@@]2(C)O)c1 [Compound No. 27, (1S,2R,4aS,8aS)-1-(3-methoxy-5-methylphenoxymethyl)-2,5,5,8a-tetramethyl-decahydronaphthalen-2-ol]	++ (50 ≤ x < 65)
CC1=CC[C@H]2C(C)(C)CCC[C@]2(C)[C@H]1COc1cc(C)cc(O)c1 [Compound No. 29, 3-{[(1S,4aS,8aS)-2,5,5,8a-tetramethyl-1,4,4a,5,6,7,8,8a-octahydronaphthalen-1-yl]methoxy}-5-methylphenol]	+++ (x ≥65)
COc1cc(C)cc(OC[C@H]2C(C)C(O)C[C@H]3C(C)(C)CCC[C@]23C)c1 (stereo partly drawn) [Compound No. 30, (4S,4aS,8aS)-4-(3-methoxy-5-methylphenoxymethyl)-3,4a,8,8-tetramethyl-decahydronaphthalen-2-ol]	+ (0 < x < 50)

Results, then the compound that gave them:

Scoring, Approach 1 (% increase relative to background)	Structure (SMILES)
++ (50 ≤ x < 65)	CC1=CC[C@H]2C(C)(C)CCC[C@]2(C)C1C(=O)c1cc(C)cc(O)c1 (stereo partly drawn) [Compound No. 4, 3-{[(4aS,8aS)-2,5,5,8a-tetramethyl-1,4,4a,5,6,7,8,8a-octahydronaphthalen-1-yl]carbonyl}-5-methylphenol]
+ (0 < x < 50)	Cc1cc(O)cc(C(=O)[C@H]2[C@H](C)C(=O)C[C@H]3C(C)(C)CCC[C@]23C)c1 [Compound No. 8, (3S,4S,4aS,8aS)-4-[(3-hydroxy-5-methylphenyl)carbonyl]-3,4a,8,8-tetramethyl-decahydronaphthalen-2-one]
+ (0 < x < 50)	Cc1cc(O)cc(C(=O)C2[C@@H](C)[C@H](O)C[C@H]3C(C)(C)CCC[C@]23C)c1 (stereo partly drawn) [Compound No. 9, (2R,3R,4aS,8aS)-4-[(3-hydroxy-5-methylphenyl)carbonyl]-3,4a,8,8-tetramethyl-decahydronaphthalen-2-ol]
++ (50 ≤ x < 65)	Cc1cc(O)cc(C[C@H]2[C@@H](CO)CC[C@H]3C(C)(C)CCC[C@]23C)c1 [Compound No. 17, 3-{[(1S,2S,4aS,8aR)-2-(hydroxymethyl)-5,5,8a-trimethyl-decahydronaphthalen-1-yl]methyl}-5-methylphenol]
+ (0 < x < 50)	Cc1cc(O)cc(C(=O)[C@H]2[C@H](C)C(O)C[C@H]3C(C)(C)CCC[C@]23C)c1 (stereo partly drawn) [Compound No. 23, (3S,4S,4aS,8aS)-4-[(3-hydroxy-5-methylphenyl)carbonyl]-3,4a,8,8-tetramethyl-decahydronaphthalen-2-ol]
+ (0 < x < 50)	COc1cc(O)cc(NC(=O)C2=C(C)CC[C@H]3C(C)(C)CCC[C@]23C)c1 [Compound No. 42, (4aS,8aS)-N-(3-hydroxy-5-methoxyphenyl)-2,5,5,8a-tetramethyl-3,4,4a,5,6,7,8,8a-octahydronaphthalene-1-carboxamide]
+ (0 < x < 50)	CC1=C(C(=O)Nc2cc(O)cc(O)c2)[C@@]2(C)CCCC(C)(C)[C@@H]2CC1 [Compound No. 43, (4aS,8aS)-N-(3,5-dihydroxyphenyl)-2,5,5,8a-tetramethyl-3,4,4a,5,6,7,8,8a-octahydronaphthalene-1-carboxamide]
